Results: patent US11465984B2, “Compound having ERK kinase inhibitory activity and use thereof” (SHANGHAI HAIHE PHARMACEUTICAL CO., LTD., priority 2017, dated 2022)

Assays:
[1] = Chemical stability assay in solutions with various pH values (UPLC); type: physicochemical
Source text: 1. Detection Means and Conditions Used in the Chemical Stability Assay
• Detection method: Ultra-high performance liquid chromatography (UPLC) Chromatographic Conditions: • System: Ultra-high performance liquid chromatography system including pump, automatic sample injector, detector, and column oven • Column Waters Acquity UPLC BEH C18 (2.1*50 mm, 1.7 μm) • Detector: PDA detector • Detection wavelength: 225 nm • Mobile phase: A: 0.05% trifluoroacetic acid in water • B: acetonitrile • Gradient:
• Flow rate: 0.4 ml/min • Column temperature: 40° C. • Injecion volume: 2 μl 2. Study on the Chemical Stability of the Compounds of the Invention (1). Formulation of Solutions of Test Compound P9
Compound P9 was formulated as solutions in different buffer systems at a concentration of 0.2 mg/ml using PEG400 as cosolvent. These solutions were used for chemical stability study. The solutions with various pH values were formulated as follows: […]
Conditions for the chemical stability assay: the solutions of Compound P9 with various pH values were stored at 37° C. for 24 h. The content of Compound P9 was determined by HPLC at 0, 4, 8, 12, 14 and 24 h. […]

[2] = Permeability study, Caco-2 cell in vitro drug absorption model; type: in vitro ADME; conditions: human
Experimental: The permeability of Compound P9 of the invention and Compound A107 of WO2017/114510A1 was determined using Caco-2 cell in vitro drug absorption model in this Example
• Cell: human intestinal cancer Caco2 (HTB-37, ATCC) • Petri dish: 10 cm petri dish (430167, Corning) • Millicell-24 microplage (PSHT010R5, Millipore) • Buffer: PBS (14190, Invitrogen) • HEPES (H0887, Sigma) • HBSS (H8264, Sigma) • Substances related to cell culture: • high glucose DMEM medium (L0103-500, Biowest) • fetal bovine serum (S1810-500, Biowest) • trypsin (255200-056, Invitrogen) • nonessential amino acid (M7145, Sigma) • penicillin and streptomycin (B-13234, GIBCO) • sodium pyruvate (11360-070, Invitrogen) • L-glutamine (25030-081, Invitrogen) • Relevant reagents: fluorescein (L0144, Sigma) • propranolol (P831800, Sigma) • colchicine (C9754, Sigma) • atenolol (A7655, Sigma) • Instruments: liquid chromatography (Waters Acquity UPLC I-class, Waters) • mass spectrometry (Waters xevo TQ-S MS/MS, Waters) • ohmmeter (Millicell-ERS, Thermo) • microplate reader (Infinite Pro, Tecan) (2). Assay Protocol:
• 1) The Caco-2 cells were revived, and incubated in a 10 cm petri dish in a 5-6% CO2 and 95% RH incubator at 37° C. […] The cells were re-suspended in 6 ml complete medium, and counted three times. • 3) The cells were harvested by centrifugation at 1000 rpm for 5 min, and diluted in suspension. […]

- Percentage (%) of the peak area of the total impurity ([1]; solution pH 2.0, 37° C., 0 h): 0.84%
- Percentage (%) relative to the peak area of the compound at the original point ([1]; solution pH 2.0, 37° C., 0 h): 100.0%
- Percentage (%) of the peak area of the total impurity ([1]; solution pH 2.0, 37° C., 4 h): 0.85%
- Percentage (%) relative to the peak area of the compound at the original point ([1]; solution pH 2.0, 37° C., 4 h): 100.1%
- Percentage (%) of the peak area of the total impurity ([1]; solution pH 2.0, 37° C., 8 h): 0.85%
- Percentage (%) relative to the peak area of the compound at the original point ([1]; solution pH 2.0, 37° C., 8 h): 101.0%
- Percentage (%) of the peak area of the total impurity ([1]; solution pH 2.0, 37° C., 12 h): 0.85%
- Percentage (%) relative to the peak area of the compound at the original point ([1]; solution pH 2.0, 37° C., 12 h): 100.6%
- Percentage (%) of the peak area of the total impurity ([1]; solution pH 2.0, 37° C., 14 h): 0.84%
- Percentage (%) relative to the peak area of the compound at the original point ([1]; solution pH 2.0, 37° C., 14 h): 100.6%
- Percentage (%) of the peak area of the total impurity ([1]; solution pH 2.0, 37° C., 24 h): 0.85%
- Percentage (%) relative to the peak area of the compound at the original point ([1]; solution pH 2.0, 37° C., 24 h): 101.0%
- Percentage (%) of the peak area of the total impurity ([1]; solution pH 6.8, 37° C., 0 h): 0.75%
- Percentage (%) relative to the peak area of the compound at the original point ([1]; solution pH 6.8, 37° C., 0 h): 100.0%
- Percentage (%) of the peak area of the total impurity ([1]; solution pH 6.8, 37° C., 4 h): 0.69%
- Percentage (%) relative to the peak area of the compound at the original point ([1]; solution pH 6.8, 37° C., 4 h): 101.0%
- Percentage (%) of the peak area of the total impurity ([1]; solution pH 6.8, 37° C., 8 h): 0.71%
- Percentage (%) relative to the peak area of the compound at the original point ([1]; solution pH 6.8, 37° C., 8 h): 101.4%
- Percentage (%) of the peak area of the total impurity ([1]; solution pH 6.8, 37° C., 12 h): 0.71%
- Percentage (%) relative to the peak area of the compound at the original point ([1]; solution pH 6.8, 37° C., 12 h): 101.6%
- Percentage (%) of the peak area of the total impurity ([1]; solution pH 6.8, 37° C., 14 h): 0.68%
- Percentage (%) relative to the peak area of the compound at the original point ([1]; solution pH 6.8, 37° C., 14 h): 100.8%
- Percentage (%) of the peak area of the total impurity ([1]; solution pH 6.8, 37° C., 24 h): 0.68%
- Percentage (%) relative to the peak area of the compound at the original point ([1]; solution pH 6.8, 37° C., 24 h): 101.7%
- Percentage (%) of the peak area of the total impurity ([1]; solution pH 7.4, 37° C., 0 h): 0.72%
- Percentage (%) relative to the peak area of the compound at the original point ([1]; solution pH 7.4, 37° C., 0 h): 100.0%
- Percentage (%) of the peak area of the total impurity ([1]; solution pH 7.4, 37° C., 4 h): 0.67%
- Percentage (%) relative to the peak area of the compound at the original point ([1]; solution pH 7.4, 37° C., 4 h): 100.3%
- Percentage (%) of the peak area of the total impurity ([1]; solution pH 7.4, 37° C., 8 h): 0.65%
- Percentage (%) relative to the peak area of the compound at the original point ([1]; solution pH 7.4, 37° C., 8 h): 101.4%
- Percentage (%) of the peak area of the total impurity ([1]; solution pH 7.4, 37° C., 12 h): 0.67%
- Percentage (%) relative to the peak area of the compound at the original point ([1]; solution pH 7.4, 37° C., 12 h): 100.9%
- Percentage (%) of the peak area of the total impurity ([1]; solution pH 7.4, 37° C., 14 h): 0.71%
- Percentage (%) relative to the peak area of the compound at the original point ([1]; solution pH 7.4, 37° C., 14 h): 101.3%
- Percentage (%) of the peak area of the total impurity ([1]; solution pH 7.4, 37° C., 24 h): 0.74%
- Percentage (%) relative to the peak area of the compound at the original point ([1]; solution pH 7.4, 37° C., 24 h): 101.1%
- chemical stability (conclusion in words) ([1]; storage in solutions of various pH at 37° C. for 24 h): good chemical stability
- efflux ratio at 1.5 h, 20 μm [2]: 1.3
- Papp A→B at 1.5 h, 20 μm ([2]; Papp, Apical to Basal, 20 μm, 1.5 h, read-out: apparent permeability coefficient (Caco-2) From A to B): 23.7 ×10⁻⁶ cm/s
Compound: Cn1nccc1Nc1cc(-c2cc(F)c3c(c2)CCN3C(=O)Cc2cccnc2Cl)ccn1 [Example P9, 2-(2-chloropyridin-3-yl)-1-(7-fluoro-5-(2-((1-methyl-1H-pyrazol-5-yl)amino)pyridin-4-yl)indolin-1-yl)ethan-1-one]
